Test results published in patent US7846903B2, “Type II cubic liquid crystal composition” (National Institute of Advanced Industrial Science and …, priority 2004, dated 2010).

Tests used:
[1] = Formation and structure of cubic liquid crystals by polarizing microscopy (penetration method) and SAXS; format: physicochemical; conditions: for liquid crystal phase formed: mixed with water, polarizing microscopy and/or SAXS
Text: Whether or not the amphiphilic lipid/water system forms cubic liquid crystals and whether or not such composition is type I or II can be easily determined by the penetration method. A small amount (several mg) of amphiphilic lipids is placed on a glass slide for a microscope, and slight pressure is applied with a glass cover to form a thin layer of amphiphilic lipids (diameter: about 1 to 5 mm) with a thickness of about 10 μm in the gap between the glass slide and the glass cover. Upon addition of water or an aqueous medium from a side of the gap between the glass slide and the glass cover by capillary action, water gradually invades the amphiphilic lipid thin layer from the exterior edge, and a water content gradient is formed from the amphiphilic lipid thin layer/water interface toward the inside of the amphiphilic lipid thin layer. Polarizing microscopic observation thereof enables the determination of a phase type formed depending on the concentration of the amphiphilic lipid/water system. […] In FIG. 2, 4 regions are observed. The rightmost region in the photograph indicates a water region, and the other regions indicate hydrous amphiphilic lipid regions. In the photograph, the rightmost regions indicates the highest water content and the leftmost region indicates a region of amphiphilic lipids that has not yet been penetrated by water. […] Since cubic liquid crystals are stably formed at the interface of excess water and the amphiphilic lipid portion, such crystals are found to be of type II.
To this end, whether or not the liquid crystal structure has cubic lattices may be investigated by the small-angle x-ray scattering (SAXS) assay. In this process, a sample of an amphiphilic lipid/water system at a given concentration may be introduced into a quartz X-ray capillary tube, the capillary may be sealed with an oxygen burner, and the resultant may be subjected to the SAXS assay.
The cubic liquid crystal composition of the present invention is not particularly limited. […] Thus, spaces and lattice constants can be easily determined. The peak values of small angle X-ray scattering or the cubic lattice size of cubic liquid crystals in the presence of an excess aqueous solvent are at constant levels regardless of the lipid concentration. The coexistence state of cubic liquid crystals and an excess aqueous medium can be confirmed by the SAXS assay. Thus, whether or not the cubic liquid crystals are of type II can be easily determined.
In equations, nL and nW are actually measurable, and ac can be measured by the SAXS experiment. Thus, the dhc value can be determined based on equations (ii) and (iii). […] Based on such comparison, whether or not the cubic liquid crystal structure is of a bicontinuous type can be determined.
Mono-O-(3,7,11,15-tetramethylhexadecyl)pentaerythritol (hereafter referred to as “mono-O-(phytanyl)pentaerythritol,” formula (5) above) and pure water were introduced into a mixing device, and incubation was carried out while performing 100 or more times of mixing operations at room temperature (23° C.) over the period of 48 hours. Thus, a homogeneously mixed sample of mono-O-(phytanyl)pentaerythritol/water system was obtained. This sample of mono-O-(phytanyl)pentaerythritol/water system appeared to be a transparent gel composition.
Subsequently, the thus obtained sample of mono-O-(phytanyl)pentaerythritol/water system (the concentration of the amphiphilic compound: 74.6% by mass) was observed by polarizing microscopy. In entire region of the lipid portions, optically isotropic textures peculiar to the cubic liquid crystals were observed (FIG. 3). In FIG. 3, the right region indicates water and the left region indicates the sample of mono-O-(phytanyl)pentaerythritol/water system. […] Such observation indicates the formation of cubic liquid crystals.
Subsequently, the sample of mono-O-(phytanyl)pentaerythritol/water system was confirmed to be a cubic liquid crystal by small-angle x-ray scattering (SAXS). […]

[2] = Krafft temperature (TK) by DSC of amphiphilic compound/water system; format: physicochemical; conditions: for Krafft temperature (° C.): amphiphilic compound alone; for TK (Krafft temperature): compound/water system
Experimental: Liquid crystals such as cubic liquid crystals formed by amphiphilic lipids are formed only at the Krafft temperature (TK), as determined depending on types and concentrations of amphiphilic lipids, or higher. Furthermore, liquid crystals generally undergo a phase transition upon changes in the concentration of the amphiphilic lipid or temperature. Accordingly, the maximal temperature (Tmax) at which a given liquid crystal structure can be stably present is also determined depending on lipid type and concentration of amphiphilic lipid. Thus, a liquid crystal structure formed by a given type of amphiphilic lipid is stably formed in the temperature range between TK and Tmax. The correlation between TK-Tmax and the concentration of the amphiphilic lipid is generally indicated as a “concentration-temperature dependent phase diagram” of the amphiphilic lipid/water system. The Krafft temperature of the amphiphilic lipid can be determined by a method known in the art, such as a method involving the preparation of such a phase diagram (e.g., Laughlin, R. G., “The Aqueous Phase Behavior of Surfactants,” 1994, Academic Press London, pp. 106-117). The Krafft temperature of a mixture of two or more amphiphilic lipids can be determined by the same method.
In the cubic liquid crystal composition of the present invention, stable bicontinuous type II cubic liquid crystals are formed at low temperatures, such as lower than 6° C. In the liquid crystal composition of the present invention, stable bicontinuous type II cubic liquid crystals are typically formed between −10° C. (or at the freezing temperature of the aqueous medium used or higher) and 80° C., and preferably between 0° C. and 50° C. The Krafft temperature of the amphiphilic lipid can be easily determined by, for example, DSC assay of an aqueous solution containing 1% to 85% by mass of amphiphilic lipid or by observing the melting behavior of the amphiphilic lipid under a (polarizing) microscope. More precisely, such temperature may be determined in accordance with a conventional technique involving the preparation of a phase diagram (e.g., Laughlin, R. G., “The Aqueous Phase Behavior of Surfactants,” 1994, Academic Press, London, pp. 106-117).
The Krafft temperatures of these amphiphilic compounds and mixtures thereof determined by the analyses described below are shown in Table 2-1 and Table 2-2.
Subsequently, the sample of mono-O-(phytanyl)pentaerythritol/water system was subjected to differential scanning calorimetry (DSC) in a temperature range between −45° C. and 70° C. DSC analysis employed the Seiko SSC/560U differential scanning calorimeter (Seiko Instruments Inc.). The sample of mono-O-(phytanyl)pentaerythritol/water system (72.4% by mass) prepared by the above method was sealed in a DSC cell, and the sample was incubated while cooling at −45° C. for 3 hours to thoroughly form a hydrated solid of mono-O-(phytanyl)pentaerythritol (hereafter abbreviated as “hydrated solid”). Subsequently, this hydrated solid was heated at a rate of temperature increase of 0.5° C./minute and a melting behavior of the hydrated solid was inspected by DSC analysis. As a result, an endothermic peak resulting from melting of the hydrated solid that begins at around −40° C. and ends at around −27° C. and an endothermic peak resulting from ice melting observed between −10° C. and 1° C. were observed, as shown in FIG. 4. In FIG. 4, the left peak is the endothermic peak resulting from melting of the hydrated solid and the right peak is the endothermic peak resulting from ice melting. Although analysis was conducted up to 70° C., other thermal transition was not observed. Substantially the same results were obtained at other concentrations. Thus, the TK of mono-O-(phytanyl)pentaerythritol was concluded to be 0° C. or lower.

[3] = lipid alone, total amphiphilic compound content 60% by mass (excess water)

CC(C)CCCC(C)CCCC(C)CCCC(C)CCOCC(O)CO (stereo not drawn) [1-O-(3,7,11-15-tetramethylhexadecyl)glycerol, reference compound]
liquid crystal phase formed [1]: type II hexagonal liquid crystals

CC(C)CCCC(C)CCCC(C)CCOCC(O)C(O)CO (stereo not drawn) [formula (2), 1-O-(3,7,11-trimethyldodecyl)erythritol]
Krafft temperature (° C.) [2]: 0 °C or lower

CC(C)CCCC(C)CCCC(C)CCCCOCC(O)C(O)CO (stereo not drawn) [formula (3), 1-O-(5,9,13-trimethyltetradecyl)erythritol]
Krafft temperature (° C.) [2]: 0 °C or lower | TK (Krafft temperature) [2]: ≤ 0 °C | lattice constant ([1]; Ia3d, 53.7% by mass, 20° C.): 17.3 nm | lattice constant ([1]; Ia3d, 53.7% by mass, 35° C.): 17.2 nm | lattice constant ([1]; Ia3d, 53.7% by mass, 40° C.): 17.1 nm | Temperature at which formation of cubic liquid crystals was observed (° C.) ([1]; Table 6, 53.7% by mass, Ia3d + Pn3m): 40 (Ia3d + Pn3m cubic liquid crystals) ° C.

CC(C)CCCC(C)CCCC(C)CCCC(C)CC(=O)OCC(O)C(O)CO (stereo not drawn) [formula (4), 1-O-(3,7,11,15-tetramethylhexadecanoyl)erythritol]
Krafft temperature (° C.) [2]: 0 °C or lower | TK (Krafft temperature) [2]: ≤ 0 °C | lattice constant ([1]; Pn3m, 52.3% by mass, 1° C.): 11.4 nm | lattice constant ([1]; Pn3m, 52.3% by mass, 25° C.): 11.3 nm | lattice constant ([1]; Pn3m, 52.3% by mass, 45° C.): 10.1 nm

CC(C)CCCC(C)CCCC(C)CCCC(C)CCOCC(CO)(CO)CO (stereo not drawn) [formula (5), mono-O-(3,7,11,15-tetramethylhexadecyl)pentaerythritol]
Krafft temperature (° C.) [2]: 0 °C or lower | TK (Krafft temperature) [2]: ≤ 0 °C | maximal temperature at which the cubic liquid crystal structure is formed [1]: 40 °C | lattice constant ([1]; 56.7% by mass, Pn3m cubic liquid crystals, 1° C.): 8.2 nm | lattice constant ([1]; 74.6% by mass, Ia3d cubic liquid crystals, 1° C.): 12.3 nm | Temperature at which formation of cubic liquid crystals was observed (° C.) ([1]; 74.6% by mass, two-phase system of Ia3d and Pn3m cubic liquid crystals): 25 (Two-phase system of Ia3d and Pn3m cubic ° C. | dhc value of bilayer membrane of the cubic liquid crystal structure ([1]; calculated based on SAXS results): 1.17±0.1 nm | diameter of the water channel of the cubic liquid crystals [1, 3]: 2.5 nm | lattice constant of the cubic liquid crystals [1, 3]: 7.06 nm

CC(C)CCCC(C)CCCC(C)CCCC(C)CC(=O)OCC(CO)(CO)CO (stereo not drawn) [formula (6), mono-O-(3,7,11,15-tetramethylhexadecanoyl)pentaerythritol]
Krafft temperature (° C.) [2]: 0 °C or lower | TK (Krafft temperature) [2]: ≤ 0 °C | lattice constant ([1]; 58.9% by mass, 25° C.): 10.6 nm | lattice constant ([1]; 58.9% by mass, 55° C.): 8.3 nm | Temperature at which formation of cubic liquid crystals was observed (° C.) ([1]; Table 4, 56.0% by mass, two-phase system of Pn3m cubic and lamellar liquid crystals): 1 (Two-phase system of Pn3m cubic liquid ° C.

CC(C)CCCC(C)CCCC(C)CCCC(C)CCCC(=O)OCC(O)C(O)CO (stereo not drawn) [formula (7), 1-O-(5,9,13,17-tetramethyloctadecanoyl)erythritol]
Krafft temperature (° C.) [2]: 0 °C or lower | TK (Krafft temperature) [2]: ≤ 0 °C

CC(C)CCCC(C)CCCC(C)CCCC(C)CCCCOCC(CO)(CO)CO (stereo not drawn) [formula (8), mono-O-(5,9,13,17-tetramethyloctadecyl)pentaerythritol]
Krafft temperature (° C.) [2]: 0 °C or lower | TK (Krafft temperature) [2]: ≤ 0 °C | liquid crystal phase formed [1]: bicontinuous type II Pn3m cubic liquid crystals

CC(C)CCCC(C)CCCC(C)CCCC(C)CCCC(=O)OCC(CO)(CO)CO (stereo not drawn) [formula (9)]
Krafft temperature (° C.) [2]: 0 °C or lower | TK (Krafft temperature) [2]: ≤ 0 °C | liquid crystal phase formed [1]: bicontinuous type II Pn3m cubic liquid crystals

CC(C)CCCC(C)CCCC(C)CCCC(C)CCCCOC1OC[C@@H](O)C(O)C1O (stereo partly drawn) [formula (10), 1-O-(5,9,13,17-tetramethyloctadecyl)-β-D-xylopyranoside]
Krafft temperature (° C.) [2]: 0 °C or lower | TK (Krafft temperature) [2]: ≤ 0 °C | lattice constant ([1]; 61.5% by mass, 1° C.): 10.1 nm | lattice constant ([1]; 61.5% by mass, 30° C.): 9.9 nm | lattice constant ([1]; 61.5% by mass, 40° C.): 9.5 nm

CC(C)CCCC(C)CCCC(C)CCCC(C)CCOC1OC[C@@H](O)C(O)C1O (stereo partly drawn) [formula (11)]
Krafft temperature (° C.) [2]: 0 °C or lower | TK (Krafft temperature) ([2]; listed as α-XP): ≤ 0 °C | lattice constant ([1]; 84.2% by mass, 1° C.): 9.8 nm | lattice constant ([1]; 84.2% by mass, 25° C.): 9.7 nm | lattice constant ([1]; 84.2% by mass, 40° C.): 9.6 nm | Temperature at which formation of cubic liquid crystals was observed (° C.) ([1]; Table 12, 78.0% by mass, Ia3d): 1 (Ia3d cubic liquid crystals) ° C.

CC(C)CCCC(C)CCCC(C)CCCCOCC(CO)(CO)CO (stereo not drawn) [formula (12), mono-O-(5,9,13-trimethyltetradecyl)pentaerythritol]
Krafft temperature (° C.) [2]: 0 °C or lower | TK (Krafft temperature) [2]: ≤ 0 °C
